Legend:
[1] = molecular target: Histone deacetylase; experiment: Inhibition of HDAC in human HeLa cell extract assessed as fluorophore release by fluorescence spectrophotometry; format: protein assay
[2] = molecular target: T1, Histone deacetylase (Homo sapiens) (UniProt Q13547+O15379+Q9UBN7+Q92769+Q9UQL6+Q8WUI4+Q9BY41+Q96DB2+P56524+Q9UKV0+Q969S8); details: HeLa, at 0.1 µM
Description: Inhibition of HDAC in human HeLa cell extract assessed as fluorophore release at 0.1 uM by fluorescence spectrophotometry

[3] = test system: HCT-116; experiment: Growth inhibition of human HCT116 cells after 5 days by alamar blue assay; format: functional; details: HCT-116, 120 h
[4] = molecular target: T1, Histone deacetylase (Homo sapiens); details: HeLa, at 10 µM
Description: Inhibition of HDAC in human HeLa cell extract assessed as fluorophore release at 10 uM by fluorescence spectrophotometry

[5] = molecular target: T1, Histone deacetylase (Homo sapiens); details: HeLa, at 1 µM
Description: Inhibition of HDAC in human HeLa cell extract assessed as fluorophore release at 1 uM by fluorescence spectrophotometry

[6] = Fraction unbound in plasma; format: ADME, cell-free
[7] = test system: Liver; experiment: Metabolic stability in rat liver S9 fraction assessed as compound remaining; format: ADME, subcellular

| Compound | IC50 [1] [nM] | inhibition [2] [%] | GI50 [3] [nM] | inhibition [4] [%] | inhibition [5] [%] | fraction unbound [6] | Stability [7] [%] |
| --- | --- | --- | --- | --- | --- | --- | --- |
| Cc1cc(S(=O)(=O)N2CCC(CCCC(=O)NO)CC2)cc2ccccc12 | 124 | 48 | 17300 | 86 | 82 | – | – |
| Cc1ccccc1S(=O)(=O)N1CCC(CCCC(=O)NO)CC1 | – | 29 | – | – | 69 | – | – |
| O=C(CCCC1CCN(S(=O)(=O)Nc2ccccc2)CC1)NO | – | 40 | 2000 | – | 70 | – | – |
| O=C(CCCC1CCN(S(=O)(=O)NCc2ccccc2)CC1)NO | – | 29 | – | – | 65 | – | – |
| O=C(CCCC1CCN(S(=O)(=O)Cc2ccccc2)CC1)NO | – | 17 | 3200 | 71 | 58 | – | – |
| Cc1cc(C)c(S(=O)(=O)N2CCC(CCCC(=O)NO)CC2)c(C)c1 | – | 32 | – | – | 75 | – | – |
| O=C(CCCC1CCN(S(=O)(=O)c2ccccc2C(F)(F)F)CC1)NO | – | 30 | – | – | 69 | – | – |
| CN(Cc1ccccc1)S(=O)(=O)N1CCC(CCCC(=O)NO)CC1 | – | 29 | – | – | 56 | – | – |
| Cc1cc(C)cc(S(=O)(=O)N2CCC(CCCC(=O)NO)CC2)c1 | – | 22 | – | 86 | 65 | – | – |
| O=C(/C=C/CC1CCN(S(=O)(=O)c2ccccc2)CC1)NO | – | 19 | – | 78 | 48 | – | – |
| CN(c1ccccc1)S(=O)(=O)N1CCC(CCCC(=O)NO)CC1 | – | 19 | – | – | 48 | – | – |
| O=C(CCCC1CCN(S(=O)(=O)c2ccccc2O)CC1)NO | – | 37 | – | 84 | 75 | – | – |
| COc1ccc(S(=O)(=O)N2CCC(CCCC(=O)NO)CC2)c(OC)c1 | – | 22 | – | 83 | 62 | – | – |
| O=C(CCCC1CCN(S(=O)(=O)c2cccc(C(F)(F)F)c2)CC1)NO | – | 13 | – | – | 57 | – | – |
| COc1ccc(S(=O)(=O)N2CCC(CCCC(=O)NO)CC2)cc1OC | 317 | 31 | – | 84 | 71 | – | – |
| O=C(CCCC1CCN(S(=O)(=O)c2ccccc2Cl)CC1)NO | 173 | 42 | 2800 | 86 | 77 | – | – |

Second part, the molecule after the results:

| IC50 [1] [nM] | inhibition [2] [%] | GI50 [3] [nM] | inhibition [4] [%] | inhibition [5] [%] | fraction unbound [6] | Stability [7] [%] | Compound |
| --- | --- | --- | --- | --- | --- | --- | --- |
| 128 | 53 | 1900 | 86 | 68 | 0.02 | 2 | O=C(CCCC1CCN(S(=O)(=O)c2ccc3ccccc3c2)CC1)NO |
| – | 4 | – | – | 40 | – | – | O=C(CCCC1CCN(S(=O)(=O)c2cccc(Cl)c2)CC1)NO |
| – | 28 | – | 83 | 67 | – | – | COc1cccc(S(=O)(=O)N2CCC(CCCC(=O)NO)CC2)c1 |
| – | 36 | – | – | 72 | – | – | O=C(CCCC1CCN(S(=O)(=O)c2ccc3c(c2)CCO3)CC1)NO |
| – | 32 | – | – | 71 | – | – | CN1CCOc2cc(S(=O)(=O)N3CCC(CCCC(=O)NO)CC3)ccc21 |
| – | 26 | – | 84 | 69 | – | – | O=C(CCCC1CCN(S(=O)(=O)c2ccc3ncsc3c2)CC1)NO |
| – | 29 | – | – | 68 | – | – | O=C(CCCC1CCN(S(=O)(=O)c2ccc3c(c2)OCCO3)CC1)NO |
| – | 24 | – | 83 | 61 | – | – | Cc1cccc(S(=O)(=O)N2CCC(CCCC(=O)NO)CC2)c1 |
| – | 25 | – | – | 62 | – | – | O=C(CCCC1CCN(S(=O)(=O)c2ccc(Cl)cc2)CC1)NO |
| 181 | 40 | 1040 | 74 | 80 | 0.03 | 14 | O=C(CCCC1CCN(S(=O)(=O)c2cccc3ccccc23)CC1)NO |
| – | 21 | – | – | 60 | – | – | O=C(CCCC1CCN(S(=O)(=O)c2ccc(F)cc2)CC1)NO |
| – | 20 | – | 80 | 44 | – | – | O=C(CCCC1CCN(S(=O)(=O)c2ccc(-c3ccccc3)cc2)CC1)NO |
| – | 15 | – | – | 55 | – | – | O=C(CCCC1CCN(S(=O)(=O)c2ccc(C(F)(F)F)cc2)CC1)NO |
| – | 30 | – | 86 | 75 | – | – | CC1(C)CCc2cc(S(=O)(=O)N3CCC(CCCC(=O)NO)CC3)ccc2O1 |
| – | 23 | 2700 | 84 | 63 | – | – | O=C(CCCC1CCN(S(=O)(=O)c2ccccc2)CC1)NO |
| 537 | 18 | – | 84 | 66 | – | – | CC(C)c1ccc(S(=O)(=O)N2CCC(CCCC(=O)NO)CC2)cc1 |
| – | 28 | – | – | 71 | – | – | Cc1ccc(S(=O)(=O)N2CCC(CCCC(=O)NO)CC2)cc1 |
| – | 9 | – | – | 51 | – | – | CC(C)(C)c1ccc(S(=O)(=O)N2CCC(CCCC(=O)NO)CC2)cc1 |
| – | 35 | – | – | 74 | – | – | O=C(CCCC1CCN(S(=O)(=O)c2ccc(-c3cnco3)cc2)CC1)NO |
| 213 | 38 | – | 85 | 75 | – | – | O=C(CCCC1CCN(S(=O)(=O)c2cccc(-c3cnco3)c2)CC1)NO |
